Reference: publication PMC11898563 (2025)

What was measured:
[1] = tested on: FRET-OA-1 (DNA, aptamer) GGTCACCAACAACAGGGAGCGCTACGCGAAGGGTCAATGTGACGTCATGCGGATGTGTGG; experiment: fluorescence (FAM/BHQ-1 FRET) titration; conditions: 150 mM NaCl, 2 mM MgCl2; 50 mM Tris, pH 7.5, 37 °C, 500 nM aptamer; exact value in Figure 1C
[2] = tested on: MST-OA-2 (DNA, aptamer) ATTTGACCATGTCGAGGGAGACGCGCAGTCGCTACCACCT; experiment: microscale thermophoresis; conditions: 150 mM NaCl, 2 mM MgCl2; 50 mM Tris, pH 7.4, room temperature
[3] = tested on: MST-OA-1 (DNA, aptamer) GGTCACCAACAACAGGGAGCGCTACGCGAAGGGTCAATGTGACGTCATGCGGATGTGTGG; experiment: microscale thermophoresis; conditions: 150 mM NaCl, 2 mM MgCl2; 50 mM Tris, pH 7.5, room temperature
[4] = tested on: APT-mid-BHQ1 (DNA, aptamer, internal BHQ1-dT at 29) ATTTGACCATGTCGAGGGAGACGCGCAGTCGCTACCACCT; experiment: strand-displacement fluorescence (duplexed FRET); conditions: FAM-11nt-C strand displaced; 1 h after OA addition
[5] = tested on: FRET-OA-2 (DNA, aptamer) ATTTGACCATGTCGAGGGAGACGCGCAGTCGCTACCACCT; experiment: fluorescence (FAM/BHQ-1 FRET) titration; conditions: 150 mM NaCl, 2 mM MgCl2; 50 mM Tris, pH 7.4, 37 °C, 500 nM aptamer; exact value in Figure 1D
[6] = tested on: OA-2 (DNA, aptamer) ATTTGACCATGTCGAGGGAGACGCGCAGTCGCTACCACCT; experiment: AuNP aggregation colorimetry; conditions: NaCl added (100 mmol L^−1 stock); 1 μmol L^−1 aptamer, room temperature
[7] = tested on: MST-DA-1 (DNA, aptamer) ATAGGAGTCACGACGACCAGAAAAATAATTTAAATTTTCTACCCAATGCTTTTCGCATAATATGTGCGTCTACCTCTTGA; experiment: microscale thermophoresis; conditions: 150 mM NaCl, 2 mM MgCl2; 50 mM Tris, pH 7.4, room temperature

Kd [1] [µM]	Kd [2] [µM]	Kd [3] [µM]	binding [4]	Kd [5] [µM]	binding [6]	Kd [7] [µM]	SMILES
< 0.8	0.25725 ± 0.09025	1.26 ± 0.56	yes	< 0.8	yes	–	C=C1[C@@H](O)[C@@H]2O[C@]3(CC[C@H](/C=C/[C@@H](C)[C@@H]4CC(C)=C[C@@]5(O[C@H](C[C@@](C)(O)C(=O)O)CC[C@H]5O)O4)O3)CC[C@H]2O[C@@H]1[C@@H](O)C[C@H](C)[C@H]1O[C@@]2(CCCCO2)CC[C@H]1C
–	–	–	–	–	–	1.18 ± 2.03	C/C(=C/C=C/[C@@H](C)C(=O)O)[C@H]1CN[C@H](C(=O)O)[C@H]1CC(=O)O
